Measurements reported in patent publication US20030130272A1, “Anthracene derivatives as anti-cancer agents” (priority 1999, published 2003).

Key:
MAC 15A cells = assay: In vitro activity against MAC 15A adenocarcinoma (MTT assay); assay type: cell-based; details: MAC15A colon adenocarcinoma, 96 hours continuous exposure
Procedure: MAC 15A cells were grown in RPMI 1640 medium supplemented with 10% foetal calf serum containing a 1% antibiotic mixture under standard tissue culture conditions and were maintained at 37° C. in a humidified atmosphere of 5% CO2 in air. Cells were harvested from a stock culture in exponential growth phase and plated in 96-well flat-bottomed plates to achieve a final density of 2×10^3 cells per well. After 2 hours incubation medium was replaced with either fresh medium containing 0.5% DMSO (control) or medium containing test compound dissolved in DMSO at a concentrations from 10 mM to 1 nM. Chemosensitivity was assessed using MTT assay by the method of Plumb et al Cancer Research 49 (1989) 4435-4440.
Following 96 hours continuous exposure to drug at 37° C. cells were incubated with fresh drug-free medium immediately prior to addition of MTT solution (5 mg/ml). Medium and MTT were removed after 4 hours and 150 μl of DMSO was added. For each plate the absorbance of the resulting solution was measured at the analytical wavelength 550 nm for formnazan product, using a Labsystem Mutiskan. IC50 values were obtained from growth curves of drug concentration against % survival and are expressed in μm.
In vitro Cytotoxicity of Spacer Limked Anthraquinone Peptide Conjugates on MAC15A Colon Adenocarcinoma

HL-60 Human Leukemia = assay: In vitro cytotoxicity against HL-60 human leukemia; assay type: cell-based
From the text: In vitro Cytotoxicity of Spacer-Linked Anthraquinone-Peptide Conjugates Against HL-60 Human Leukemia

topo I [1] = molecular target: T1, topo I (Homo sapiens, UniProt P11387); assay: Inhibition of topoisomerase I mediated relaxation of pBR322 DNA; assay type: biochemical
T1 sequence (P11387 1-765): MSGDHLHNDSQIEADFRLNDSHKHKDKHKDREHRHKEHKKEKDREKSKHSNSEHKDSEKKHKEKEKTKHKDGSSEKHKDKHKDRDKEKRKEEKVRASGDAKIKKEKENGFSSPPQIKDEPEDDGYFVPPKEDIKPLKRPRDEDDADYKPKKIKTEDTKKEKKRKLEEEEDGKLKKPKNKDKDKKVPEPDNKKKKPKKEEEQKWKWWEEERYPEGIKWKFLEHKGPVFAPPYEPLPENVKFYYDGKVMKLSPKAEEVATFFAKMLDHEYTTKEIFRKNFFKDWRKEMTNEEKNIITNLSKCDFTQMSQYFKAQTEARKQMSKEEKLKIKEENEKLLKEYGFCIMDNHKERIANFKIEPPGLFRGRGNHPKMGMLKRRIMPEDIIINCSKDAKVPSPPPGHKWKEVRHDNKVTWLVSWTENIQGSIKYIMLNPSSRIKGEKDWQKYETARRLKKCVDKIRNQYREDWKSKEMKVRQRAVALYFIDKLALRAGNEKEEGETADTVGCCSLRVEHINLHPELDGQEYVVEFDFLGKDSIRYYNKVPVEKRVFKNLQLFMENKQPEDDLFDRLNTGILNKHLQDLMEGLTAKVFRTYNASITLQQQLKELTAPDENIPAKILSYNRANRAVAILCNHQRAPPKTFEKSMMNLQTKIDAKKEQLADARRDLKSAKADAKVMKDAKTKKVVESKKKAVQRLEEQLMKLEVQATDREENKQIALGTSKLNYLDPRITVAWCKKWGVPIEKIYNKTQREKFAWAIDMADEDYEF

topo I [2] = molecular target: T1, topo I; assay: Stimulation of topoisomerase I mediated cleavage of pBR322 DNA; assay type: biochemical; details: for nicked plasmid DNA (topo I mediated cleavage): at 25 μM
From the text: To determine the effect of the newly synthesised compounds on the catalytic activity of topo I and II (α and β), specific tests measuring relaxation, decatenation and enzyme-mediated cleavage of DNA were employed using purified human topos.
Simulation of Topoisomerase I Mediated Cleavage of pBR322DNA by Spacer-Linked Anthraquinone-Peptide Conjugates

pBR322 DNA = assay: DNA binding assay: fluorescence quenching, displacement of ethidium bromide and Hoechst dye 33258; details: for QH50: concentration displacing 50% of Hoechst dye 33258 (groove binder) from DNA; for QE50: concentration displacing 50% of ethidium bromide (intercalator) from DNA
From the text: The present inventors have now determined that the introduction of appropriately positioned, conformationally restricted groups into the spacer group of spacer-linked anthraquinone-amino acid or peptide conjugates, allows control of the affinity and mode of binding to DNA. This affinity and mode of binding to DNA is readily determined by fluorescence quenching experiments in which the Q50 values for displacement of ethidium bromide, a DNA intercalator, and for Hoechst 33258 dye, a DNA minor-groove-binder, from which their fluorescent DNA-bound complexes are measured and expressed in μM units of drug concentration (see PCT/GB99/01901 incorporated herein by reference).
The propensity of selected compounds to bind to DNA in the absence of topos was measured in order to identify compounds that would bind weakly, or not at all. […] A […] was used determine binding constants of the compound to DNA by displacement of either ethidium bromide (an intercalator) or Hoechst dye 33258 (a groove binder) which form a DNA-bound fluorescent complex measured by fluorescence spectroscopy.
DNA Binding Assay Protocol
In order to detect the strength and mode of anthraquinone compound binding to DNA the displacement of known DNA binders was detected by measuring the fluorescence of a DNA/fluorescent compound complex. The addition of known concentrations of ethidium bromide, an interchelator, and Hoescht Dye, a groove binder, cause a fluorescent DNA/binder complex that can be detected and the fluorescence quantified. The addition of anthraquinone compounds displaces the interchelators or groove binders, depending on the compound mode of DNA binding, and therefore reduces the fluorescence accordingly. The preferred binding action of compounds can be quantified by determining the reduction in fluorescence resulting from a given concentration of compound. The quantification of a compounds ability to bind to DNA is expressed, as the concentration required to displace 50% of the ethidium bromide or Hocscht Dye, thus reducing the fluorescence by 50%. Therefore, the values produced are QE50 for ethidium, bromide, or QH50 for Hoescht Dye.
Compound: 300, 60, 10 and 10/6 µM (1.66 μM) solution concentrations were prepared for use in the assay to produce a range of compound. Concentrations. 100, 200 and 300 μl of each dilution were used in the assay reaction. This provides a range of concentrations: −30, 20, 10, 6, 4, 2, 1, 0.67, 0.33, 0.17, 0.11, 0.06, 0.00 μM in the assay environment. Intermediate concentrations can be utilised to enhance the accuracy of the displacement concentration determination.
Buffer: 100 mM Tris, NaCI 500 mM. […] Stock solution of 200 μM was prepared in 10× assay buffer. Dilution of DNA therefore provided the correct concentration of assay buffer in the assay cell. 300 μg DNA was used in 3 ml reaction mixture therefore 20 μM DNA concentration. Hoescht Dye 2 μM final concentration, therefore 100 μl of a 60 μM stock solution was added to a 3 ml assay. Ethidium Bromide 2 μM final concentration therefore 100 μl of a 60 μM stock solution was added to a 3 ml assay. Distilled H2O Water was added to produce 3 ml reaction volume. Order of addition: 1. DNA, 2. Water, 3. Drug, 4. Dye
The assay was completed with both Hoescht Dye and Ethidium. Bromide for each compound. The ethidium bromide is a DNA inter-chelator, Hoescht Dye is a minor groove binder. 100, 200 and 30 gμ of the lowest compound dilution was assayed. This procedure was repeated with all further dilution's. This provided a curve of fluorescence intensity decrease with increasing compound concentration. QE50 and QH50 values were determined by extrapolating the concentration of compound at the point where the fluorescence intensity was reduced by 50%. Controls involving compound only and ethidium. bromide or Hoechst Dye without compound were carried out for each experiment. […]

topo I [3] = molecular target: T1, topo I; assay: Immunoband depletion of topoisomerase I in HL-60 cells; assay type: cell-based; parameters: endogenous in cells; host or cells: HL-60 human leukemia cells
Procedure: Immunoband Depletion of Topoisomerase I
The data provides good evidence for ternary complex (drug-DNA-enzyme) formation in viable whole cells.
The method was adapted from Boege and Andersen [Selected novel flavones inhibit the DNA binding or the DNA religation step of cukaryotic topoisomerase I, F. Boege, T. Straub, A. Kehr, C. Boesenberg, K. Christiansen, A. Andersen, F. Jakob, J, Kohrle, J. Biol. Chem., 271, 2262, (1996)]; briefly, 10^6 HL-60 cells were cultivated for 1 h with and without drugs. Reactions were terminated by sedimentation of the cells (1000×g, 5 min, 4° C.) and subsequent lysis in PBS/NP40, RIPA buffer containing pepstatin and leupeptin. Samples were subjected to SDS-polyacrylamide (8%) gel electrophoresis and proteins that had entered the gel were electrophoretically transferred to nitro-cellulose sheets by the semi-dry method. Immunstaining of immobilised proteins was carried out using a polyclonal Ab of human topo I [topogen], and subsequently anti-human Ig biotinylated whole Ab (sheep)[Amersham], streptavidin horse-radish peroxidase and the ECL system [Amersham].

| Compound | IC50 (MAC 15A cells) [µM] | nicked plasmid DNA (topo I mediated cleavage) (topo I [2]) | QH50 (pBR322 DNA) [µM] | QE50 (pBR322 DNA) [µM] | melting point [°C] | further results |
| --- | --- | --- | --- | --- | --- | --- |
| C[C@H](N)C(=O)N1CCN(c2cccc3c2C(=O)c2ccccc2C3=O)CC1.O=C(O)C(F)(F)F [Example 17, 1-(1-L-alanylpiperazinyl)anthracene-9,10-dione trifluoroacetate salt] | 25 | 10% nicked plasmid DNA at 25 μM |  |  |  | IC50 (HL-60 Human Leukemia): 10.7 µM; DNA-topoisomerase activity: inhibition of topo I relaxation (topo I [1]; at 25 μM): COMPLETE inhibition at 25 μM |
| 1-(2-β-alanylpiperazinyl)anthracene-9,10-dione trifluoroacetate salt [Example 15] | 20 |  | 1.6 | 11.4 |  |  |
| N[C@@H](Cc1ccccc1)C(=O)N1CCN(c2cccc3c2C(=O)c2ccccc2C3=O)CC1.O=C(O)C(F)(F)F [Example 21, 1-(1-L-phenylalanylpiperazinyl)anthracene-9,10-dione trifluoroacetate salt] |  |  |  |  |  | DNA-topoisomerase activity: inhibition of topo I relaxation (topo I [1]; at 10 μM): COMPLETE inhibition at 10 μM; DNA-topoisomerase activity: topo I mediated cleavage (topo I [2]; between 10-100 μM): NO CLEAVAGE between 10-100 μM |
| O=C1c2c(O)ccc(O)c2C(=O)c2c(NCCNCCO)ccc(NCCNCCO)c21 [Mitoxantrone, reference compound] |  |  | 1.0 | 0.35 |  |  |
| O=C1c2ccccc2C(=O)c2c1cccc2N1CCNCC1 |  |  |  |  | 190 |  |
| CN(CCO)c1cccc2c1C(=O)c1c(cccc1N(C)CCO)C2=O |  |  |  |  | 168 to 178 |  |
| N[C@@H](Cc1ccccc1)C(=O)NC1CCC(Nc2cccc3c2C(=O)c2ccccc2C3=O)CC1.O=C(O)C(F)(F)F (stereo partly drawn) [Example 26, (2S)-2-amino-N-{4-[(9,10-dioxoanthryl)amino]cyclohexyl}-3-phenylpropanamide trifluoroacetate salt] | 3.5 | 45% nicked plasmid DNA at 25 μM | 2.3 | 6.5 |  | DNA-topoisomerase activity: inhibition of topo I relaxation (topo I [1]; between 25-100 μM): NO inhibition between 25-100 μM; intensity of the (100 kDa) topo I band (topo I [3]; 1 h with drug, in comparison with camptothecin): Reductions in the intensity of the (100 kDa) topo I band were observed; extent of immunoband depletion (topo I [3]; above 200 μM): comparable to the effect of camptothecin at 50 μM |
| (2R)-2-amino-N-{4-[(9,10-dioxoanthryl)amino]cyclohexyl}-3-phenylpropanamide trifluoroacetate salt [Example 28] | 8 | 20% nicked plasmid DNA at 25 μM |  |  |  | DNA-topoisomerase activity: inhibition of topo I relaxation (topo I [1]; at 50 μM): PARTIAL inhibition at 50 μM |
| Nc1ccc(Nc2cccc3c2C(=O)c2ccccc2C3=O)cc1 |  |  |  |  | 175 to 182 |  |
| O=C(O)C(F)(F)F.O=C1c2ccccc2C(=O)c2c1cccc2N1CCNCC1 [Example 4b, 1-(1-piperazinyl)anthracene-9,10-dione trifluoroacetate salt] |  |  | 1.7 | 10.5 | 170 |  |
